Assay results as given in the supplement of paper PMC9244889.
Structures can show the parent of a compound that is named as a salt.

Tests used:
Vero E6 [1] = assay: cytotoxicity relative to untreated cell control; higher = more toxic; details: 72 h, assay detail: uninfected
Method: (§1)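 Vero E6 C1008 cells (2e4 cells/well) were treated with a 3-fold dilution series of each drug (monotherapy), with or without live SARS-CoV-2 (propagated original strain, 100 TCID50). After 72 h at 37 °C, viability was read with Viral ToxGlo (ATP luminescence). %Inhibition of virus-induced CPE and %Cytotoxicity (uninfected) were normalised to cell and virus controls. Triplicates. The paper excluded %Inhibition points with >25% cytotoxicity from its curve fits.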

Vero E6 [2] = assay: inhibition of SARS-CoV-2-induced cytopathic effect relative to cell and virus controls; higher = more antiviral protection; details: 72 h, virus: SARS-CoV-2 propagated original strain, 100 TCID50, assay detail: infected
Method: as §1

O=c1nc(NO)ccn1[C@@H]1O[C@H](CO)[C@@H](O)[C@H]1O [EIDD-1931]
Details | cytotoxicity, Vero E6 [1] [%] | inhibition of SARS-CoV-2-induced cytopathic effect, Vero E6 [2] [%]
56.45 pM | -9.83 | -1.26
0.000169351 µM | -16.6 | 0.00675
0.000508053 µM | -20 | 0.0533
0.00152416 µM | -19.1 | 0.601
0.00457247 µM | -16.2 | -0.506
0.0137174 µM | -14.9 | -0.261
0.0411523 µM | -10.5 | -0.787
0.123457 µM | -12.1 | 3.32
0.37037 µM | -7.1 | 13.2
1.11111 µM | -15.6 | 57.5
3.33333 µM | 7.25 | 78.3
10 µM | 25.9 | 70.6

CCc1c2c(nc3ccc(O)cc13)-c1cc3c(c(=O)n1C2)COC(=O)[C@]3(O)CC [SN-38]
Details | cytotoxicity, Vero E6 [1] [%] | inhibition of SARS-CoV-2-induced cytopathic effect, Vero E6 [2] [%]
56.45 pM | -12.2 | -1.53
0.000169351 µM | -12.8 | -0.815
0.000508053 µM | -9.63 | -0.975
0.00152416 µM | -8.98 | -2.92
0.00457247 µM | -9.11 | -3.61
0.0137174 µM | -9.99 | -6.1
0.0411523 µM | 5.49 | -10.4
0.123457 µM | 1.29 | -10.9
0.37037 µM | 1.32 | -11.1
1.11111 µM | 6.01 | -10.4
3.33333 µM | 43.6 | -14.8
10 µM | 82.6 | -17.4

CCS(=O)(=O)N1CC(CC#N)(n2cc(-c3ncnc4[nH]ccc34)cn2)C1 [baricitinib]
Details | cytotoxicity, Vero E6 [1] [%] | inhibition of SARS-CoV-2-induced cytopathic effect, Vero E6 [2] [%]
56.45 pM | -23.8 | 0.443
0.000169351 µM | -24.9 | -0.597
0.000508053 µM | -20.2 | 1.73
0.00152416 µM | -17.5 | 0.473
0.00457247 µM | -20.6 | 0.0832
0.0137174 µM | -15.3 | -0.169
0.0411523 µM | -17.8 | -0.529
0.123457 µM | -13.4 | -0.177
0.37037 µM | -9.61 | 0.117
1.11111 µM | -14 | -1.55
3.33333 µM | -9.73 | -2.06
10 µM | -10.3 | -1.06

O=c1c2ccccc2[se]n1-c1ccccc1 [ebselen]
Details | cytotoxicity, Vero E6 [1] [%] | inhibition of SARS-CoV-2-induced cytopathic effect, Vero E6 [2] [%]
56.45 pM | -9.38 | 0.954
0.000169351 µM | -15.3 | -0.438
0.000508053 µM | -9.41 | -0.0732
0.00152416 µM | -4.85 | -0.949
0.00457247 µM | -3.63 | -0.344
0.0137174 µM | -5.61 | -0.6
0.0411523 µM | -10.3 | -1.57
0.123457 µM | -6.66 | 0.817
0.37037 µM | -2.52 | 0.828
1.11111 µM | -1.45 | 1.82
3.33333 µM | 2.92 | 6.69
10 µM | 17.6 | 71.3

Cc1ccc(NC(=O)c2ccc(CN3CCN(C)CC3)cc2)cc1Nc1nccc(-c2cccnc2)n1 [imatinib mesylate]
Details | cytotoxicity, Vero E6 [1] [%] | inhibition of SARS-CoV-2-induced cytopathic effect, Vero E6 [2] [%]
0.000564503 µM | 4.59 | 0.0871
0.00169351 µM | -0.227 | -0.274
0.00508053 µM | -4.57 | -1.02
0.0152416 µM | -8.01 | -0.646
0.0457247 µM | -4.41 | -1.84
0.137174 µM | -4.39 | -1.94
0.411523 µM | -6.59 | -2
1.23457 µM | -4.79 | 1.61
3.7037 µM | -6.93 | 18
11.1111 µM | 9.9 | 102
33.3333 µM | 61.8 | 48.6
100 µM | 99.785 | -17.3

Cc1cccc(C)c1OCC(=O)N[C@@H](Cc1ccccc1)[C@@H](O)C[C@H](Cc1ccccc1)NC(=O)[C@H](C(C)C)N1CCCNC1=O [lopinavir]
Details | cytotoxicity, Vero E6 [1] [%] | inhibition of SARS-CoV-2-induced cytopathic effect, Vero E6 [2] [%]
0.00112901 µM | 8.74 | 2.06
0.00338702 µM | 6.74 | 1.04
0.0101611 µM | -8.25 | 1.48
0.0304832 µM | -3.94 | 0.483
0.0914495 µM | -7.05 | 1.04
0.274348 µM | -5.02 | 2.11
0.823045 µM | -7.06 | 1.91
2.46914 µM | -5.88 | 1.69
7.40741 µM | -25.7 | 2.75
22.2222 µM | 25.9 | 72.7
66.6667 µM | 99.066 | -14.47
200 µM | 99.504 | -14.97

Cc1ccc(NC(=O)c2ccc(CN3CCN(C)CC3)cc2)cc1Nc1nc(-c2cccnc2)cs1 [masitinib]
Details | cytotoxicity, Vero E6 [1] [%] | inhibition of SARS-CoV-2-induced cytopathic effect, Vero E6 [2] [%]
0.000564503 µM | -15.3 | 0.87
0.00169351 µM | -17.5 | 1.03
0.00508053 µM | -21.6 | 2.14
0.0152416 µM | -16.3 | 1.2
0.0457247 µM | -19.4 | 0.66
0.137174 µM | -17.8 | 0.458
0.411523 µM | -19.8 | 3.69
1.23457 µM | -15.2 | 8.75
3.7037 µM | 4.4 | 42.8
11.1111 µM | 83.4 | 18.1
33.3333 µM | 99.617 | -7.42
100 µM | 99.831 | -17.86

N=C(N)Nc1ccc(C(=O)Oc2ccc3cc(C(=N)N)ccc3c2)cc1 [nafamostat mesylate]
Details | cytotoxicity, Vero E6 [1] [%] | inhibition of SARS-CoV-2-induced cytopathic effect, Vero E6 [2] [%]
56.45 pM | -10.2 | 1.36
0.000169351 µM | -7.59 | 0.555
0.000508053 µM | -1.77 | 1.31
0.00152416 µM | -4.85 | 0.363
0.00457247 µM | -6 | 0.453
0.0137174 µM | -9.55 | 0.391
0.0411523 µM | -7.66 | -0.525
0.123457 µM | -5.32 | -0.383
0.37037 µM | 1.08 | 0.358
1.11111 µM | -2.6 | 0.841
3.33333 µM | 1.59 | 0.526
10 µM | -0.485 | -0.288

CCC(CC)COC(=O)[C@H](C)N[P@](=O)(OC[C@H]1O[C@@](C#N)(c2ccc3c(N)ncnn23)[C@H](O)[C@@H]1O)Oc1ccccc1 [remdesivir]
Details | cytotoxicity, Vero E6 [1] [%] | inhibition of SARS-CoV-2-induced cytopathic effect, Vero E6 [2] [%]
0.000564503 µM | -22.9 | 1.31
0.00169351 µM | -17.3 | 1.17
0.00508053 µM | -11.8 | -0.59
0.0152416 µM | -6.94 | -0.693
0.0457247 µM | -6.5 | -0.335
0.137174 µM | -4.51 | 1.45
0.411523 µM | -1.99 | 6.62
1.23457 µM | -7.93 | 42.2
3.7037 µM | -2.61 | 111
11.1111 µM | 2.25 | 108
33.3333 µM | 9.25 | 96.6
100 µM | 59.6 | 44.1

CC(C)c1nc(CN(C)C(=O)N[C@H](C(=O)N[C@@H](Cc2ccccc2)C[C@H](O)[C@H](Cc2ccccc2)NC(=O)OCc2cncs2)C(C)C)cs1 [ritonavir]
Details | cytotoxicity, Vero E6 [1] [%] | inhibition of SARS-CoV-2-induced cytopathic effect, Vero E6 [2] [%]
0.00112901 µM | -15.2 | 2.5
0.00338702 µM | -13.3 | 3.51
0.0101611 µM | -27.3 | 1.73
0.0304832 µM | -22.5 | 0.79
0.0914495 µM | -33.3 | 2.39
0.274348 µM | -28.6 | 0.802
0.823045 µM | -22 | 1.81
2.46914 µM | -21.4 | 1.96
7.40741 µM | -27.3 | 2.22
22.2222 µM | -38.7 | 7.59
66.6667 µM | 8.14 | 2.75
200 µM | 69.7 | -2.18

O=C(/C=C\n1cnc(-c2cc(C(F)(F)F)cc(C(F)(F)F)c2)n1)NNc1cnccn1 [selinexor]
Details | cytotoxicity, Vero E6 [1] [%] | inhibition of SARS-CoV-2-induced cytopathic effect, Vero E6 [2] [%]
0.000564503 µM | 14.6 | 1.79
0.00169351 µM | 14.9 | 0.365
0.00508053 µM | 7.61 | -1.85
0.0152416 µM | 7.88 | -2.96
0.0457247 µM | 29.1 | -4.3
0.137174 µM | 23.4 | -3.81
0.411523 µM | 35.6 | -3.25
1.23457 µM | 47.2 | -2.87
3.7037 µM | 48.93 | -1.23
11.1111 µM | 44.1 | 8.51
33.3333 µM | 89.1 | -1.32
100 µM | 99.74 | -15.08

CCC[C@H](NC(=O)[C@@H]1[C@H]2CCC[C@H]2CN1C(=O)[C@@H](NC(=O)[C@@H](NC(=O)c1cnccn1)C1CCCCC1)C(C)(C)C)C(=O)C(=O)NC1CC1 [telaprevir]
Details | cytotoxicity, Vero E6 [1] [%] | inhibition of SARS-CoV-2-induced cytopathic effect, Vero E6 [2] [%]
0.000564503 µM | 0.259 | 0.117
0.00169351 µM | -0.00145 | 1.28
0.00508053 µM | -4.54 | -0.629
0.0152416 µM | -3.42 | -0.222
0.0457247 µM | -3.36 | 0.129
0.137174 µM | -8.35 | -0.93
0.411523 µM | -3.53 | -0.643
1.23457 µM | -4.1 | 1.01
3.7037 µM | -6.16 | 0.773
11.1111 µM | -1.51 | 0.394
33.3333 µM | 17.2 | -2.07
100 µM | 80.5 | 17.4
